How the values were obtained:
[1] = tested on: recombinant lipase (Bacillus sphaericus 205y lipase expressed in E. coli); assay: Effect of organic solvents on crude recombinant lipase activity (organic solvent-tolerant test); assay type: biochemical; details: for Relative activity (%) at concentration of 25%: 25% (v/v) solvent (1 ml solvent/3 ml crude enzyme), 30 min, 37° C., shaking, relative to non-solvent control
Procedure: The mixture is allowed to stand still for 20-30 seconds until the aqueous phase was sedimented clearly from the solution of isooctane and fatty acids. The reaction mixture contains 0.01 M calcium chloride (20 μl), olive oil emulsion (2.5 ml) and crude enzyme (1 ml). The reaction mixture was continuously agitated by using a horizontal shaker at 200 rpm at 37° C. The reaction was stopped by adding isooctane (5 ml) to dissolve free fatty acids produced by olive oil hydrolysis. Lipase activity was determined by measuring the free fatty acids from the standard curve of free fatty acids. One unit of lipase activity was defined as 1.0 μmol of fatty acid liberated per min per ml.
After induction with IPTG (1 mM), 10 ml of cells were pelleted by centrifugation at 10,000 gram and resuspended in 10 ml of Phosphate buffer (PBS). The cells were mixed thoroughly, placed on ice, and sonicated with Branson sonicater (2 min, 30% duty cycle). The broken cells were pelleted and the supernantant were used in determining the lipase activity and organic solvent tolerant. Various organic solvents were tested at the concentration of 25% (v/v) by addition of 1 ml of organic solvent to 3 ml of crude enzyme. The reaction mixture was incubated for 30 minutes at 37° C. under shaking condition (200 rpm). Remaining activity was assayed under standard condition and expressed as the percent of the control value. For control, distilled water was added instead of solvent. The organic solvents used were hexane, ρ-xylene, benzene, dimethy sulfoxide, acetonitrile and hexadecane. Each experiment was done in triplicate.
Table 4: Effect of different organic solvents on crude recombinant lipase activity. Three milliliters of cell-free supernatant of the culture was incubated with 1 ml of organic solvents at 37° C. with shaking. The remaining lipase activity relative to the non-solvent containing control was measured.

[2] = cited from earlier work
isolate 205y = assay: Growth of isolate 205y in different organic solvents and concentrations; assay type: cell-based, Bacillus sphaericus 205y; design: Growth of isolate 205y: key to the marks not given beside the values; details: for Growth of isolate 205y: growth visually determined
Procedure: The Bacillus sphaericus 205y culture could be obtained from Enzyme and Microbial Technology Research Department of Biochemistry and Microbiology, Faculty of Science and Environmental Studies, University Putra Malaysia. One gram of soil is resuspended in 10 ml basal mineral […] supplemented with selected hydrocarbon (0.1% v/v). The basal media contained (w/v) K2HPO4 0.5%, NH4Cl (1.0%), Na2SO4 (2%), KNO3 (2%), MgSO4.7H2O (0.2%).
Selected hydrocarbons would either be benzene, toluene or mixture of both as their sole carbon and energy source. Pure isolates were prescreened in media spiked with 1% v/v hydrocarbon. Isolates were grouped into groups of good, moderate, acceptable and negative, based on the turbidity of the media (Inoue et al., 1989). Non-inoculated controls were also used to ensure that the turbidity is due to growth.

[3] = tested on: lipase secreted by Bacillus sphaericus 205y; assay: Effect of organic solvents on crude lipase secreted by Bacillus sphaericus 205y; assay type: biochemical; details: 25% (v/v) solvent
Procedure: Lipase activity is measured with olive oil emulsion as substrate (Kwon and Rhee. 1991). All reactions were performed at 37° C. for 15 minutes at shaking condition of 200 rpm unless otherwise indicated. One unit of lipase activity was defined as 1.0 μmol of fatty acid liberated per min per ml.
Bacillus sphaericus 205y is grown at 37° C. in M3 medium. The culture medium (24 h) is […] (0.25 μm pore size) as crude enzyme. Investigation of various effects of organic solvents at the concentration of 25% (v/v) (1 ml of organic solvent/3 ml of crude enzyme) on the lipase activity was done. The reaction mixture was incubated for 30 minutes at 37° C. under shaking condition (200 rpm).

## CC#N [Acetonitrile]
[1]
  Relative activity (%) at concentration of 25%: 0%

## CCCCCCCCCCCCCCCC [Hexadecane]
[1]; 25% (v/v) solvent
  Effect on recombinant lipase activity (in words): completely inhibited
[1]
  Relative activity (%) at concentration of 25%: 0%

## C[S+](C)[O-] [Dimethyl sulfoxide]
[1]
  Relative activity (%) at concentration of 25%: 10%
[2]
  Log P: −1.22

## Cc1ccccc1 [Toluene]
Isolate 205y; Hydrocarbon 1% (v/v)
  Growth of isolate 205y: +++
Isolate 205y; Hydrocarbon 5% (v/v)
  Growth of isolate 205y: +++
Isolate 205y; Hydrocarbon 10% (v/v)
  Growth of isolate 205y: ++
Isolate 205y; Hydrocarbon 25% (v/v)
  Growth of isolate 205y: ++
Isolate 205y; Hydrocarbon 50% (v/v)
  Growth of isolate 205y: ++
Isolate 205y; Hydrocarbon 75% (v/v)
  Growth of isolate 205y: ++

## c1ccccc1 [Benzene]
Isolate 205y; Hydrocarbon 1% (v/v)
  Growth of isolate 205y: ++
Isolate 205y; Hydrocarbon 5% (v/v)
  Growth of isolate 205y: +++
Isolate 205y; Hydrocarbon 10% (v/v)
  Growth of isolate 205y: +++
Isolate 205y; Hydrocarbon 25% (v/v)
  Growth of isolate 205y: ++
Isolate 205y; Hydrocarbon 50% (v/v)
  Growth of isolate 205y: ++
Isolate 205y; Hydrocarbon 75% (v/v)
  Growth of isolate 205y: ++

## CCCCCC [n-Hexane]
[1]; 25% (v/v) solvent
  Effect on recombinant lipase activity (in words): slightly activated
  Lipase activity enhanced (fold of control): 1.10 folds
[1]
  Relative activity (%) at concentration of 25%: 110%
[3]
  Stability of lipase secreted by Bacillus sphaericus 205y in solvent (in words): stable
[2]
  Log P: 3.6

## Cc1ccc(C)cc1 [ρ-Xylene]
Isolate 205y
  Growth of 205y in solvent (in words): good growth
Isolate 205y; Hydrocarbon 1% (v/v)
  Growth of isolate 205y: ++
Isolate 205y; Hydrocarbon 5% (v/v)
  Growth of isolate 205y: +++
Isolate 205y; Hydrocarbon 10% (v/v)
  Growth of isolate 205y: +++
Isolate 205y; Hydrocarbon 25% (v/v)
  Growth of isolate 205y: +++
Isolate 205y; Hydrocarbon 50% (v/v)
  Growth of isolate 205y: ++
Isolate 205y; Hydrocarbon 75% (v/v)
  Growth of isolate 205y: ++
[1]
  Relative activity (%) at concentration of 25%: 90%
[3]
  Stability of lipase secreted by Bacillus sphaericus 205y in solvent (in words): stable
